Reference: ChEMBL document CHEMBL1201862, “PubChem BioAssay data set” (2004)
Calls of active or inactive are those of the source.

How the values were obtained:
[1] = target: Sphingosine 1-phosphate receptor 2 (Homo sapiens, UniProt O95136); experiment: Dose Response Cell Based Assay for Antagonists of the S1P2 Receptor. [Related pubchem assays: 856, 736 ]; assay type: functional
[2] = target: Dual specificity tyrosine-phosphorylation-regulated kinase 1A (Rattus norvegicus, UniProt Q63470); assay type: biochemical, Homo sapiens
[3] = target: Lysine-specific demethylase 4C (Homo sapiens, UniProt Q9H3R0); experiment: inhibition of JMJD2C H3K9me3 demethylation – biochemical, DELFIA europium, cherry-picked samples, dose response (AID 488835); assay type: functional
[4] = test system: Streptococcus; experiment: GAS UMAA2166 growth inhibition – luminescence, BacTiterGlo, counter-screen for streptokinase expression inhibitor project, dose response (AID 1915); assay type: functional, organism-based;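 note: potency for reduction of bacterial viability or growth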
[5] = target: T1, RNA-editing ligase 1, mitochondrial (Trypanosoma brucei brucei, UniProt P86926); experiment: inhibition of trypanosome RNA editing ligase – biochemical, fluorescence, Trypanosoma brucei, dose response (AID 1117295); assay type: functional
T1 sequence (P86926 whole entry): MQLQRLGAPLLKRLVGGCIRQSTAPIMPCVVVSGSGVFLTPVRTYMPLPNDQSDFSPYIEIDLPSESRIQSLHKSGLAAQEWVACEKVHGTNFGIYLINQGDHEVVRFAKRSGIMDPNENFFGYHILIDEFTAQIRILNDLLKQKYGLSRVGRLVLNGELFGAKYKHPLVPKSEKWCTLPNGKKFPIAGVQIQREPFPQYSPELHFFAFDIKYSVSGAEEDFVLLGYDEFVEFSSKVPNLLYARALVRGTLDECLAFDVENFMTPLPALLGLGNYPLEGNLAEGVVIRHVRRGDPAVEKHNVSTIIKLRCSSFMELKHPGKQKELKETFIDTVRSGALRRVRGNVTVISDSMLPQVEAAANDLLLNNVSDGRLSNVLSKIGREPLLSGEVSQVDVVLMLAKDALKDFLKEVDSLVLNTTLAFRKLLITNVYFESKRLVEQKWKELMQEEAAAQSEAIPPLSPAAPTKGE

[6] = test system: BJ; experiment: cells; assay type: functional, cell-based; settings: Homo sapiens
[7] = DRD fibroblast viability loss – cell-based, non-viral oncogenic, luminescence, dose response (AID 1934); assay type: functional; settings: Homo sapiens
[8] = target: Mu-type opioid receptor (Homo sapiens, UniProt P35372); experiment: Counterscreen for agonists of heterodimerization of the mu 1 (OPRM1) and delta 1 (OPRD1) opioid receptors: Luminescence-based cell-based high throughput dose response assay to identify agonists of OPRM1 homodimerization.; assay type: functional;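 note: U2OS cells expressing OPRM1 and beta-arrestin as split beta-galactosidase partners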
[9] = target: T2, Heat shock factor protein 1 (Mus musculus, UniProt P38532); experiment: enhancement of HSF1-driven luciferase signal – cell-based, NIH3T3, luminescence, dose retest, confirmation (AID 435004); assay type: functional;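 note: stress induced by proteasome inhibitor MG132 added 30 min after compound; luciferase reporter driven by HSF1 response element in NIH3T3 cells; actives raise luminescence as potentiators of the MG132 stress response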
T2 sequence (P38532 whole entry): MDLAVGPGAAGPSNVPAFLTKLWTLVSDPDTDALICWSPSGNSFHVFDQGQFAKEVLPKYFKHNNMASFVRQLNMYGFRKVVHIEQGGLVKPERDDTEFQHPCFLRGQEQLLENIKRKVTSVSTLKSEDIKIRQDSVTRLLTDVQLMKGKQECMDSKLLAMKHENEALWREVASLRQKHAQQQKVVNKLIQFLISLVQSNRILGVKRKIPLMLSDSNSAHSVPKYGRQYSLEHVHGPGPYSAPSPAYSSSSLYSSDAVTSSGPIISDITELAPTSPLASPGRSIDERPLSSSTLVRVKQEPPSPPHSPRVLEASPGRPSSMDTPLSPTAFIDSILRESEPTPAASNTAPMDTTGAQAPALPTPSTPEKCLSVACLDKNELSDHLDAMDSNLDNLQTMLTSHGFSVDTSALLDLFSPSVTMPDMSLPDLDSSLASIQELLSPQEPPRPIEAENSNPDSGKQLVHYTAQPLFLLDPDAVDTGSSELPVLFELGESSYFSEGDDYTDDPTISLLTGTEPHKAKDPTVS

[10] = target: Caspase-9 (Homo sapiens, UniProt P55211); experiment: inhibitors of purified CASP9 protease – biochemical, fluorescence, plate reader, cherry-picked samples, selectivity assay for caspase-6 inhibitor project, dose response (AID 743293)
[11] = target: T3, 1-phosphatidylinositol 4,5-bisphosphate phosphodiesterase gamma-1 (Homo sapiens, UniProt P19174); experiment: Counterscreen for inhibitors of phospholipase C isozymes (PLC-B3): Fluorescence-based biochemical high throughput dose response assay to identify inhibitors of phospholipase C isozymes (PLC-gamma1).
T3 sequence (P19174 whole entry): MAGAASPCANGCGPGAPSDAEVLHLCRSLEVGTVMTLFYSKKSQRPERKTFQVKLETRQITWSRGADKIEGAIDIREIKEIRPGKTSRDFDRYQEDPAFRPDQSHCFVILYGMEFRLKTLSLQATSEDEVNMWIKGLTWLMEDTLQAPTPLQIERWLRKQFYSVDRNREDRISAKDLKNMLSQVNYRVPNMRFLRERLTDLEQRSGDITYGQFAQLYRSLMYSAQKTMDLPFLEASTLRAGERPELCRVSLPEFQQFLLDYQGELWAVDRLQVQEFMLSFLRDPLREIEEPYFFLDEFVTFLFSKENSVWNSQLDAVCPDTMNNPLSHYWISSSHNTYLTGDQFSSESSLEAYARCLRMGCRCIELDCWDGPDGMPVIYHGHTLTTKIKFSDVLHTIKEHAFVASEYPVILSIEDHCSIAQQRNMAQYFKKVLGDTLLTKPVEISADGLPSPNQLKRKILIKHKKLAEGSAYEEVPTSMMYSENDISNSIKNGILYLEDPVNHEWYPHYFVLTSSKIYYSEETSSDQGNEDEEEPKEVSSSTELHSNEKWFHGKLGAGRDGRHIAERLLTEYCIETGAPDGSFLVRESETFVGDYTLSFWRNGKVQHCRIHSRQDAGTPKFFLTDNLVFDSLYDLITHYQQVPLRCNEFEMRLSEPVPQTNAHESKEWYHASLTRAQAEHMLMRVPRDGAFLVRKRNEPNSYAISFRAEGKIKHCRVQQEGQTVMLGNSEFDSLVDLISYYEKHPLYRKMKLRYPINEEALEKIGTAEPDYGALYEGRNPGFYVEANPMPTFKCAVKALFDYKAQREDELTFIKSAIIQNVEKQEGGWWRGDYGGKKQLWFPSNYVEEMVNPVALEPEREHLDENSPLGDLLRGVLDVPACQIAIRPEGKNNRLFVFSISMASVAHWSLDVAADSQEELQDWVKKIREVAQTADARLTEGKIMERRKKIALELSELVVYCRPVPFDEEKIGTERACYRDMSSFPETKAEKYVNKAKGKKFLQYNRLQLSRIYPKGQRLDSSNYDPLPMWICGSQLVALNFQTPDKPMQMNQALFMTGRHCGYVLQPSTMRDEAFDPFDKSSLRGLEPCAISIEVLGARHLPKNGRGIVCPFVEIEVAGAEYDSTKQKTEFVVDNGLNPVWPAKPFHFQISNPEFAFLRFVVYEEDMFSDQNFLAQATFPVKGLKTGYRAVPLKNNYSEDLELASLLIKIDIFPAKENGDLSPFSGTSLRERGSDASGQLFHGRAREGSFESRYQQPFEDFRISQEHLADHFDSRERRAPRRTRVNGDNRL

Sequence of Mu-type opioid receptor (P35372 whole entry): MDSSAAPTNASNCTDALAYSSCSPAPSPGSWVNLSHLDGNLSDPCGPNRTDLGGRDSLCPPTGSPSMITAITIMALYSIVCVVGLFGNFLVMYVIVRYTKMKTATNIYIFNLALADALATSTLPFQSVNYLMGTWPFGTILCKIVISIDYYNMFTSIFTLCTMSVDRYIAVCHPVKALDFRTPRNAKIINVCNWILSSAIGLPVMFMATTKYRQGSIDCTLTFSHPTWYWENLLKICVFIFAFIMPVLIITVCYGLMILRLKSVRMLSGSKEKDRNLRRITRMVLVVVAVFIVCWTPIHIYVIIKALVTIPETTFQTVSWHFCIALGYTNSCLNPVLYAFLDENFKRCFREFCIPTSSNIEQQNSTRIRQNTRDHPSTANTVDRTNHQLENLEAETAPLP
Sequence of Lysine-specific demethylase 4C (Q9H3R0 whole entry): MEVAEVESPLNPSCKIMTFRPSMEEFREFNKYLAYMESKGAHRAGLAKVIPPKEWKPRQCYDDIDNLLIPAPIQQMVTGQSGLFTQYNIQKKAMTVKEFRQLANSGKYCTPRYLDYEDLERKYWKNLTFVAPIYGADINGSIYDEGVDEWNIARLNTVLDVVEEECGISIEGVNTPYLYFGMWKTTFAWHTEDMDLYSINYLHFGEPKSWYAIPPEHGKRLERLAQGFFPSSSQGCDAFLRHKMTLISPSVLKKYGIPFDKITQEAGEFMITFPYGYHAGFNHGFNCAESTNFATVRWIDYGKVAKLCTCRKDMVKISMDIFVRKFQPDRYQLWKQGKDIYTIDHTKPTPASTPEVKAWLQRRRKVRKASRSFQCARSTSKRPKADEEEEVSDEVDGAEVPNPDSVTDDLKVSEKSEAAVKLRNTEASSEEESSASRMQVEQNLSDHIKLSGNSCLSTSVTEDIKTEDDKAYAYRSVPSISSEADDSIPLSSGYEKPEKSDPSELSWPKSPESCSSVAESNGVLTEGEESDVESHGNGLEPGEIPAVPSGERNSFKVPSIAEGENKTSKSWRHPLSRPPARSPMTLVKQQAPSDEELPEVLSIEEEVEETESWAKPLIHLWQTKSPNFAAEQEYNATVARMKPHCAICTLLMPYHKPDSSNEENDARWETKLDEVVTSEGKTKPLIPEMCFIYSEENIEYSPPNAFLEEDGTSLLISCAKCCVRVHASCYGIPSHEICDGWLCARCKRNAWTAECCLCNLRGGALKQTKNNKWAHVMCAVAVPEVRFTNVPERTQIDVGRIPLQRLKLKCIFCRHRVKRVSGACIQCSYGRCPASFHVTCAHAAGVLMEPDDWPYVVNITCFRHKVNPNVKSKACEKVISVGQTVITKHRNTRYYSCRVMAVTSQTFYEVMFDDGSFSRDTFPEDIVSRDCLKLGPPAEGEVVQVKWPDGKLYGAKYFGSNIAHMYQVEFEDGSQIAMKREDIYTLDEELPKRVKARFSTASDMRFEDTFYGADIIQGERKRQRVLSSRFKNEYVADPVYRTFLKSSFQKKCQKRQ
Sequence of Caspase-9 (P55211 1-315 limits assumed): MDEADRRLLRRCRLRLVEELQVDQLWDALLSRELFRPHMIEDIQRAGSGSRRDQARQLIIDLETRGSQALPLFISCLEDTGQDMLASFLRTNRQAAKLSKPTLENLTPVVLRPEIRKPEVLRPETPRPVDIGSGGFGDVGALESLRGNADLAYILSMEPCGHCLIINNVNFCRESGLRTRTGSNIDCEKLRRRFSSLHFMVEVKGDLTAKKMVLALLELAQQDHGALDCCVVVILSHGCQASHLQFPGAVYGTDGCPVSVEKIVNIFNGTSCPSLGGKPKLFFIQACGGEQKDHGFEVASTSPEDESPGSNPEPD
Sequence of Caspase-9 (P55211 331-416 limits assumed): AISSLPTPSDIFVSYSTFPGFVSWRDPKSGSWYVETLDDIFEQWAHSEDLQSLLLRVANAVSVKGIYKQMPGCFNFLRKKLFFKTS
Sequence of Sphingosine 1-phosphate receptor 2 (O95136 whole entry): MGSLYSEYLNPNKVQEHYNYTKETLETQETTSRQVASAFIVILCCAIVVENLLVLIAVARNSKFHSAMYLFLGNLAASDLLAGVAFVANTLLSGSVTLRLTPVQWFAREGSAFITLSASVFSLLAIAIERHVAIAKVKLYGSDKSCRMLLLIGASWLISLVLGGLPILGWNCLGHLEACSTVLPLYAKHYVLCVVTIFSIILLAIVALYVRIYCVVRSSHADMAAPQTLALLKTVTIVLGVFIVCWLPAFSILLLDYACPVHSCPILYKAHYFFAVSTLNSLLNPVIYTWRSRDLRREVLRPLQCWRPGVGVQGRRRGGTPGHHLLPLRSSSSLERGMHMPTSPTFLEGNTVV

With `Cc1nc2c(=O)n(C)c(=O)nc-2n(C)n1` the IC50 [1] was 1.4 µM (active), the AC50 [2] was 0.215 µM (active) and the AC50 [3] was 0.425 µM (active). The EC50 [4] was 9.31 µM (active), the IC50 [5] was 0.411 µM (active) and the EC50 [6] was 5.69 µM (active). For the same molecule, the EC50 [7] was 4.39 µM (active).
With `O=C1C=C(c2c(O)ccc3ccccc23)c2ccccc2C1=O` the EC50 [8] was > 92.4 µM (inactive).
For `Oc1nc(Nc2ccccc2Cl)cc2ccccc12`, the EC50 [9] was 136 µM (active) and the AC50 [10] was 28.8 µM (active).
In the case of `O=C(CCN1C(=O)/C(=C\c2ccco2)SC1=S)Nc1ccc(C(=O)O)c(O)c1`, the IC50 [11] is reported as > 122 µM (inactive).
